Our source for the IC50 values is patent US20250206722A1, “SMALL MOLECULE INHIBITORS OF TEA DOMAIN FAMILY MEMBERS” (The Scripps Research Institute, priority 2022, published 2025).

Common to all, as to type: cell-based
For assay [1], the system named is transcriptional activity of TEADs. Briefly: TEAD reporter assay (MCF7 TEAD-LUC reporter cells). As to conditions: Homo sapiens, 24 hours, BrightGlo luminescence. In short, it runs like this:
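Luminescence (BrightGlo) was read after 24 h of compound treatment at 37 °C, 5 % CO2. Cells had been seeded at 5,000 per well in DMEM with 10 % FBS and insulin and rested 24 h first. Dosing used 20 points, 1:2 dilution from 20 μM final, triplicates.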
(In general: Reporter assays use an easily measured gene product as a stand-in for the process of interest.)

The test system of assay [2] is NCI-H226 cells. Briefly: NCI-H226 proliferation assay (in house). Conditions: Homo sapiens, 120 h, 5 days, Cell TiterGlo, 20-point 1:2 dilution from 20 μM. In short, it runs like this: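 Viability by CellTiter-Glo luminescence after 5-day compound exposure at 37 °C, 5% CO2. Compounds added 24 h post-seeding (500 cells/well, RPMI 1640 with 10% FBS) as 20-point, 2-fold series from 20 μM final, triplicate wells.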

In assay [3] the test system is NCI-H226 cells. Kind of assay: NCI-H226 proliferation assay (Wuxi AppTec). As to conditions: Homo sapiens, 168 h, 7 days, CellTiter-Glo, top dose 10, 3-fold dilution, 9 doses. How it is done: […] Proliferation Assay (From Wuxi AppTec CO.):
Day −1: Seeding cells • (1) Equilibrate cell culture medium to 37° C. • (2) Remove and discard the culture medium. • (3) Briefly rinse the cell layer with PBS to remove all traces of serum that contains […]. • (4) Add 2-3 mL of Trypsin-EDTA solution to flask and observe cells under an inverted microscope until cell layer is dispersed. • (5) Add 6-8 mL of growth medium to terminate the digestion of Trypsin/EDTA. • (6) Centrifuge the mixture (Trypsin EDTA and the growth medium) at 1000 rpm for 5 mins. • (7) Discard the supernatant, suspend the cell precipitation with the fresh growth medium, then take 1 mL the cell suspension to count cells with Vi-cell XR cell viability analyzer. • (8) Adjust the cell density to 500 cells/well for 384-well plates. • (9) Add 50 µL/well volume cell suspension to the assay plate. • (10) Add […] media to the control columns. • (11) Incubate the plate at 37° C., 5% CO2 for overnight. Day 0: Compounds treatment • (1) Add cpds to each well by Tecan HP D300E. The top dose is […], 3-fold dilution and 9 doses. DMSO final concentration will be normalized to 0.2%. • (2) Incubate the assay plate at 37° C., 5% CO2 for 7 days. Day 7: Plate read • (1) Equilibrate the assay plate to the room temperature for nearly 30 minutes. • (2) Add […] CellTiter-Glo reagent to each well and shake the plate for 1 min, incubate 10 min and keep them from light. • (3) Detect the plate by EnVision. Data analysis:
Max: Average of the DMSO group Min: Average of medium group.

As to `C=CC(=O)N1CCC(c2cccnc2Oc2ccc(C(F)(F)F)nc2)CC1` [Example 155, 1-(4-(2-((6-(trifluoromethyl)pyridin-3-yl)oxy)pyridin-3-yl)piperidin-1-yl)prop-2-en-1-one], the 50% inhibitory concentration (IC50) – broadly, the point on the concentration scale where inhibition reaches its midpoint – in assay [1] was 1.8 nM; with NCI-H226 cells [2], 0.015 µM; in the assay on NCI-H226 cells [3], 0.018 µM.
On to `C=C(F)C(=O)N1CC=C(c2cccnc2Oc2ccc(C(F)(F)F)nc2)CC1` [Example 154, 2-fluoro-1-(2-((6-(trifluoromethyl)pyridin-3-yl)oxy)-3′,6′-dihydro-[3,4′-bipyridin]-1′(2′H)-yl)prop-2-en-1-one], for which the IC50 was found to be 2.9 nM in assay [1], 0.05 µM with NCI-H226 cells [2] and 0.02 µM in the assay with NCI-H226 cells [3].
In the same order, the values of `C=CC(=O)N1CCN(c2nc(C)ncc2Nc2ccc(C(F)(F)F)cc2)CC1` [Example 128, 1-(4-(2-methyl-5-((4-(trifluoromethyl)phenyl)amino)pyrimidin-4-yl)piperazin-1-yl)prop-2-en-1-one] are 1.6 nM, 0.179 µM and 0.082 µM.
The matching figures for `C=CC(=O)N1CCN(c2ccnnc2Nc2ccc(C(F)(F)F)cc2)CC1` [Example 119, 1-(4-(3-((4-(trifluoromethyl)phenyl)amino)pyridazin-4-yl)piperazin-1-yl)prop-2-en-1-one]: 3.2 nM, 0.012 µM and 0.042 µM.
In the same order, the values of `C=CC(=O)N1CC=C(c2nccnc2Oc2cnc(C(F)(F)F)nc2)CC1` [Example 89, 1-(4-(3-((2-(trifluoromethyl)pyrimidin-5-yl)oxy)pyrazin-2-yl)-3,6-dihydropyridin-1(2H)-yl)prop-2-en-1-one] are 1.8 nM, 0.164 µM and 0.033 µM.
`C=C(F)C(=O)N1CCN(c2nccnc2Nc2ccc(C(F)(F)F)nc2)CC1` [Example 46, 2-fluoro-1-(4-(3-((6-(trifluoromethyl)pyridin-3-yl)amino)pyrazin-2-yl)piperazin-1-yl)prop-2-en-1-one]: the figures for the IC50 (in assay [1]; in the assay on NCI-H226 cells [2]; in the assay with NCI-H226 cells [3]) were 0.6 nM, 1.63 µM and 0.452 µM, respectively.
In the same order, the values of `C=C(F)C(=O)N1CC(Nc2nccnc2Nc2ccc(C(F)(F)F)nc2)C1` [Example 63, 2-fluoro-1-(3-((3-((6-(trifluoromethyl)pyridin-3-yl)amino)pyrazin-2-yl)amino)azetidin-1-yl)prop-2-en-1-one] are 4.8 nM, 1.5 µM and 1.7 µM.
Turning to `C=C(F)C(=O)N1CCN(c2nccnc2Oc2ccc(C(F)(F)F)nc2)CC1` [Example 78, 2-fluoro-1-(4-(3-((6-(trifluoromethyl)pyridin-3-yl)oxy)pyrazin-2-yl)piperazin-1-yl)prop-2-en-1-one], the IC50 worked out at 2.1 nM in assay [1], 0.032 µM with NCI-H226 cells [2] and 0.009 µM in the assay on NCI-H226 cells [3].
Regarding `C=CC(=O)N1CCN(c2nccnc2OC2CCC(C(F)(F)F)CC2)CC1` (stereo not drawn) [Example 94, 1-(4-(3-((4-(trifluoromethyl)cyclohexyl)oxy)pyrazin-2-yl)piperazin-1-yl)prop-2-en-1-one], the IC50 came out at 0.84 nM in assay [1], 0.018 µM in the assay with NCI-H226 cells [2] and 0.017 µM in the assay on NCI-H226 cells [3].
In the case of `C=CC(=O)N1CCN(c2nccnc2Nc2ccc(OC(F)F)nc2)CC1` [Example 49, 1-(4-(3-((6-(difluoromethoxy)pyridin-3-yl)amino)pyrazin-2-yl)piperazin-1-yl)prop-2-en-1-one], the IC50 amounted to 2 nM in assay [1], 0.055 µM with NCI-H226 cells [2] and 0.031 µM in the assay on NCI-H226 cells [3].
In the same order, the values of `C=CC(=O)N1CCN(c2nccnc2Nc2cnc(C(F)(F)F)c(F)c2)CC1` [Example 50, 1-(4-(3-((5-fluoro-6-(trifluoromethyl)pyridin-3-yl)amino)pyrazin-2-yl)piperazin-1-yl)prop-2-en-1-one] are 3.1 nM, 0.034 µM and 0.026 µM.
In the same order, the values of `C=C(F)C(=O)N1CC=C(c2nccnc2Oc2cnc(C(F)(F)F)nc2)CC1` [Example 90, 2-fluoro-1-(4-(3-((2-(trifluoromethyl)pyrimidin-5-yl)oxy)pyrazin-2-yl)-3,6-dihydropyridin-1(2H)-yl)prop-2-en-1-one] are 5.9 nM, 0.033 µM and 0.031 µM.
As for `C=CC(=O)N1CCN(c2nccnc2Oc2cnc(C(F)(F)F)nc2)CC1` [Example 87, 1-(4-(3-((2-(trifluoromethyl)pyrimidin-5-yl)oxy)pyrazin-2-yl)piperazin-1-yl)prop-2-en-1-one], the IC50 in assay [1] is 1.4 nM; in the assay on NCI-H226 cells [2] it was 0.025 µM; with NCI-H226 cells [3] it was 0.047 µM.
In the same order, the values of `C=CC(=O)N1CC=C(c2cnc(C)nc2Oc2ccc(C(F)(F)F)nc2)CC1` [Example 129, 1-(4-(2-methyl-4-((6-(trifluoromethyl)pyridin-3-yl)oxy)pyrimidin-5-yl)-3,6-dihydropyridin-1(2H)-yl)prop-2-en-1-one] are 1.2 nM, 0.104 µM and 0.137 µM.
In the same order, the values of `C=CC(=O)N1CCN(c2nccnc2Oc2ccc(OC(F)F)cc2)CC1` [Example 71, 1-(4-(3-(4-(difluoromethoxy)phenoxy)pyrazin-2-yl)piperazin-1-yl)prop-2-en-1-one] are 1.3 nM, 0.008 µM and 0.007 µM.
Take `C=CC(=O)N1CCN(c2nccnc2Oc2ccc(OC(F)(F)F)cc2)CC1` [Example 72, 1-(4-(3-(4-(trifluoromethoxy)phenoxy)pyrazin-2-yl)piperazin-1-yl)prop-2-en-1-one]: the results for the IC50 (in assay [1]; in the assay with NCI-H226 cells [2]; with NCI-H226 cells [3]) were 0.52 nM, 0.005 µM and 0.011 µM, respectively.
`C=CC(=O)N1CCC(c2nccnc2Nc2ccc(C(F)(F)F)cn2)CC1` [Example 44, 1-(4-(3-((5-(trifluoromethyl)pyridin-2-yl)amino)pyrazin-2-yl)piperidin-1-yl)prop-2-en-1-one]: the IC50 is 1.4 nM in assay [1], 0.012 µM with NCI-H226 cells [2] and 0.02 µM in the assay on NCI-H226 cells [3].
As for `C=CC(=O)N1CCC(n2nc(C)cc2C(=O)c2ccc(C(F)(F)F)cc2)CC1` [Example 166, 1-(4-(3-methyl-5-(4-(trifluoromethyl)benzoyl)-1H-pyrazol-1-yl)piperidin-1-yl)prop-2-en-1-one], the IC50 came to 0.6 nM in assay [1], 0.02 µM in the assay on NCI-H226 cells [2] and 0.015 µM with NCI-H226 cells [3].
For `C=CC(=O)N1CC=C(c2nccnc2Nc2ccc(C(F)(F)F)nc2)CC1` [Example 55, 1-(4-(3-((6-(trifluoromethyl)pyridin-3-yl)amino)pyrazin-2-yl)-3,6-dihydropyridin-1(2H)-yl)prop-2-en-1-one], the IC50 came to 4 nM in assay [1], 0.03 µM in the assay with NCI-H226 cells [2] and 0.058 µM in the assay with NCI-H226 cells [3].
The matching figures for `C=CC(=O)N1CCN(c2nccnc2Nc2ccc(OC(F)F)cc2)CC1` [Example 35, 1-(4-(3-((4-(difluoromethoxy)phenyl)amino)pyrazin-2-yl)piperazin-1-yl)prop-2-en-1-one]: 0.8 nM, 0.084 µM and 0.028 µM.
On to `C=C(F)C(=O)N1CC=C(c2nccnc2Oc2ccc(C(F)(F)F)nc2)CC1` [Example 85, 2-fluoro-1-(4-(3-((6-(trifluoromethyl)pyridin-3-yl)oxy)pyrazin-2-yl)-3,6-dihydropyridin-1(2H)-yl)prop-2-en-1-one], for which the figures for the IC50 (in assay [1]; in the assay on NCI-H226 cells [2]; in the assay on NCI-H226 cells [3]) were 1.6 nM, 0.016 µM and 0.011 µM, respectively.
In the same order, the values of `C=CC(=O)N1CCN(c2nccnc2N2CCC(C(F)(F)F)CC2)CC1` [Example 105, 1-(4-(3-(4-(trifluoromethyl)piperidin-1-yl)pyrazin-2-yl)piperazin-1-yl)prop-2-en-1-one] are 1.1 nM, 0.004 µM and 0.05 µM.
The matching figures for `C=CC(=O)N1CC=C(c2cccnc2Oc2cnc(C(F)(F)F)nc2)CC1` [Example 157, 1-(2-((2-(trifluoromethyl)pyrimidin-5-yl)oxy)-3′,6′-dihydro-[3,4′-bipyridin]-1′(2′H)-yl)prop-2-en-1-one]: 1.6 nM, 0.132 µM and 0.013 µM.
As for `C=CC(=O)N1CCN(c2nccnc2C(=O)c2ccc(C(F)(F)F)nc2)CC1` [Example 96, 1-(4-(3-(6-(trifluoromethyl)nicotinoyl)pyrazin-2-yl)piperazin-1-yl)prop-2-en-1-one], the values for the IC50 (in assay [1]; in the assay on NCI-H226 cells [2]; in the assay with NCI-H226 cells [3]) were 3.6 nM, 0.012 µM and 0.089 µM, respectively.
